Measurements: PubChem BioAssay (NCI)
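Exposure lasted 48 hours, with cells grown in 96-well plates and compounds tested at five concentrations. TGI denotes the concentration required for complete inhibition of growth.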

How the values were obtained:
Experiment in all cases: growth of human tumour cells (NCI), 48 h
RPMI-8226 leukemia = tested on: RPMI-8226 leukemia
SF-295 CNS = tested on: SF-295 CNS
UACC-257 melanoma = tested on: UACC-257 melanoma
DU-145 prostate = tested on: DU-145 prostate
U251 CNS = tested on: U251 CNS
OVCAR-8 ovarian = tested on: OVCAR-8 ovarian
T-47D breast = tested on: T-47D breast
RXF 393 renal = tested on: RXF 393 renal
SNB-19 CNS = tested on: SNB-19 CNS
K-562 leukemia = tested on: K-562 leukemia
SK-MEL-28 melanoma = tested on: SK-MEL-28 melanoma
SF-268 CNS = tested on: SF-268 CNS
SW-620 colon = tested on: SW-620 colon
MALME-3M melanoma = tested on: MALME-3M melanoma
SN12C renal = tested on: SN12C renal
HT29 colon = tested on: HT29 colon
OVCAR-3 ovarian = tested on: OVCAR-3 ovarian
KM12 colon = tested on: KM12 colon
BT-549 breast = tested on: BT-549 breast
SF-539 CNS = tested on: SF-539 CNS

Compound	TGI (RPMI-8226 leukemia) [µM]	TGI (SF-295 CNS) [µM]	TGI (UACC-257 melanoma) [µM]	TGI (DU-145 prostate) [µM]	TGI (U251 CNS) [µM]	TGI (OVCAR-8 ovarian) [µM]	TGI (T-47D breast) [µM]	TGI (RXF 393 renal) [µM]	TGI (SNB-19 CNS) [µM]	TGI (K-562 leukemia) [µM]	TGI (SK-MEL-28 melanoma) [µM]	TGI (SF-268 CNS) [µM]	TGI (SW-620 colon) [µM]	TGI (MALME-3M melanoma) [µM]	TGI (SN12C renal) [µM]	TGI (HT29 colon) [µM]	TGI (OVCAR-3 ovarian) [µM]	TGI (KM12 colon) [µM]	TGI (BT-549 breast) [µM]	TGI (SF-539 CNS) [µM]
CC(Cc1ccccc1)Nc1ncnc2c1ncn2C1OC(CO)CC1O (configuration not stated)	> 100	6.21	> 100	> 100	> 100	> 100	> 100	> 100	> 100	> 100	> 100	> 100	> 100	> 100	> 100	> 100	> 100	> 100	> 100	–
COc1ccc([C@H]2CC(=O)C[C@H](c3ccc(OC)cc3)C23C(=O)c2ccccc2C3=O)cc1	> 100	> 100	7.74	> 100	> 100	> 100	> 100	16	> 100	> 100	> 100	> 100	> 100	> 100	> 100	> 100	–	> 100	> 100	53.3
CN1CCN(C(=S)N(C(=O)c2ccc(Cl)cc2)c2ccccc2)CC1	> 100	> 100	> 100	> 100	> 100	> 100	> 100	> 100	> 100	> 100	> 100	> 100	> 100	> 100	> 100	> 100	> 100	> 100	> 100	–
O=C1N=C(SC(SC2=NC(=O)C3(NN2)c2ccccc2-c2ccccc23)=C(SC2=NC(=O)C3(NN2)c2ccccc2-c2ccccc23)SC2=NC(=O)C3(NN2)c2ccccc2-c2ccccc23)NNC12c1ccccc1-c1ccccc12	> 10	> 10	> 10	> 10	–	> 10	> 10	> 10	> 10	> 10	> 10	> 10	> 10	> 10	> 10	> 10	–	> 10	> 10	> 10
COc1cc(C2=C(c3cc(OC)c4ccccc4c3OC)C(=O)c3ccccc3C2=O)c(OC)c2ccccc12	–	> 100	> 100	> 100	> 100	> 100	> 100	> 100	> 100	–	> 100	> 100	> 100	> 100	> 100	> 100	> 100	> 100	> 100	> 100
O=C(O)c1cc(CC2Cc3cc4c(cc3C2=O)CCC4)cc2c1CCC2 (configuration not stated)	> 100	> 100	> 100	> 100	> 100	> 100	> 100	–	> 100	> 100	> 100	> 100	> 100	> 100	> 100	> 100	> 100	> 100	> 100	> 100
C=C[C@@]1(C)CC[C@@H]2[C@@]3(C1)O[C@H]3CC1[C@](C)(C(=O)OC)CCC[C@@]12C (some centres not stated)	65.6	29.3	44.3	> 100	49.6	40.9	55.9	33	30.3	> 100	42.1	38.4	41.9	35	–	27.1	31.9	> 100	67.2	–
C=CCOc1cc(NC(=S)c2ccoc2C)ccc1OC	> 100	> 100	> 100	> 100	> 100	> 100	> 100	–	> 100	> 100	> 100	> 100	> 100	> 100	> 100	> 100	> 100	> 100	> 100	> 100
Cc1ccc(Cc2n[nH]c(=O)n2Nc2ccccc2)cc1	> 100	> 100	> 100	> 100	> 100	> 100	> 100	–	> 100	> 100	> 100	> 100	> 100	> 100	> 100	> 100	> 100	> 100	> 100	> 100
OCCOCCN1CCN(CCCN2c3ccccc3Sc3ccc(C(F)(F)F)cc32)CC1	17.8	25.8	18.3	27.6	24.7	30	2.48	9.85	27.8	10.3	9.55	33.1	29.6	–	26.7	7.65	33	20.2	35.4	25.9
Cc1ccc([N+](=O)[O-])cc1S(=O)(=O)Nc1ccc(C2=NOC(c3ccco3)C2)cc1 (configuration not stated)	96.8	46.5	39.1	39.3	–	> 100	89.4	23.3	37.9	59.3	43.5	97.1	58.9	53.5	52.6	56	30.7	24.7	39.2	68.3
Cn1c(=O)c2c(nc3n(CCCCl)c(=O)ccn23)n(C)c1=O	> 100	> 100	> 100	> 100	> 100	> 100	> 100	> 100	> 100	> 100	> 100	> 100	> 100	–	> 100	> 100	> 100	> 100	> 100	> 100
COC(=O)C(Cc1ccccc1)NP(=O)(O)OCC1OC(n2cc(Br)c(=O)[nH]c2=O)CC1O (configuration not stated)	–	> 100	> 100	> 100	> 100	> 100	> 100	> 100	> 100	> 100	> 100	> 100	> 100	> 100	> 100	> 100	> 100	> 100	> 100	> 100
CCN(C(=O)N[C@@H](Cc1ccccc1)C(=O)N[C@@H](CC(C)C)C(=O)OC)c1ccccc1	56.9	84.3	54.3	31.7	72.7	36.7	> 100	37.7	> 100	> 100	32.6	–	75	–	43.8	27.3	72	> 100	> 100	36.1
N#C[C@@H](c1nc2ccccc2s1)c1ncccc1[N+](=O)[O-]	–	40.7	> 100	> 31.6	11.7	20.6	25	> 31.6	17.4	–	–	> 31.6	–	–	> 31.6	–	10.6	> 62.9	26.9	–
COc1ccc(/C=C2\NC(=S)N(/C=C3\C(=O)Oc4ccccc4C3=O)C2=O)cc1OC	> 100	> 100	> 100	> 100	> 100	> 100	> 100	> 100	> 100	> 100	–	> 100	> 100	–	> 100	> 100	> 100	> 100	> 100	> 100
Cc1c(C)c(C)c(-n2c(=O)n(C)c(=O)n2-n2c(=O)n(C)c(=O)n2-c2c(C)c(C)c(C)c(C)c2C)c(C)c1C	> 100	–	> 100	> 100	> 100	> 100	> 100	> 100	> 100	> 100	> 100	> 100	> 100	> 100	> 100	> 100	> 100	> 100	> 100	> 100
NC(=O)Nc1ccc(S(=O)(=O)Nc2ccc(S(N)(=O)=O)cc2)cc1	> 100	> 100	> 100	> 100	> 100	> 100	> 100	> 100	> 100	> 100	> 100	2.59	> 100	> 100	> 100	> 100	> 100	> 100	> 100	–
CC(=O)N1C(OC(C)C)CC(C)N1c1ccccc1 (configuration not stated)	> 10	> 10	> 10	> 10	–	> 10	> 10	> 10	> 10	> 10	> 10	> 10	> 10	> 10	> 10	> 10	> 10	–	> 10	> 10
O=C(c1ccccc1)n1c(Cc2ccccc2)nc2cc(C34CC5CC(CC(C5)C3)C4)ccc21	> 100	> 100	> 100	> 100	> 100	> 100	> 100	> 100	> 100	> 100	> 100	> 100	> 100	> 100	> 100	> 100	–	> 100	> 100	–
CN1CN(c2ccccc2)C2(CCN(Cc3csc4ccccc34)CC2)C1=O	7.5	26.6	31.9	> 100	–	72.6	71	35.2	> 100	> 100	68.7	> 100	> 100	45.5	30.6	36.5	27.4	26.8	20.5	48.3
CCOC(=O)c1nnsc1NC(=O)Nc1ccc(Cc2ccc(NC(=O)Nc3snnc3C(=O)OCC)cc2)cc1	> 100	> 100	> 100	> 100	> 100	76.6	> 100	70.5	> 100	> 100	> 100	> 100	> 100	> 100	> 100	> 100	> 100	> 100	> 100	–
COc1ccc(CCCCl)c(C2=NCCc3cc(OC)c(OC)cc32)c1	28.5	> 100	> 100	> 100	> 100	> 100	> 100	> 100	> 100	> 100	> 100	> 100	> 100	–	> 100	> 100	> 100	> 100	> 100	> 100
COC(=O)C1CC2CCC1(O[Si](C(C)C)(C(C)C)C(C)C)C(O)C2 (configuration not stated)	40.7	47.2	–	34.9	31.9	28.1	76.7	28.8	44.2	28.9	44.9	79.2	60.8	> 100	34.5	30.2	39.3	38.6	79.3	–
